From patent US20120034320A1, “Skin Penetration Composition” (DOMINION RESOURCES, UNLIMITED, LLC, priority 2010, published 2012)
Counter-ions that a name gives are not always drawn.

What was measured:
[1] = test system: fibromyalgia; test: Physician observation, Patient A: fibromyalgia; format: in vivo, human; conditions: Relievz lotion twice daily to affected areas, pregabalin 400 mg daily, other products as previously used
[2] = test system: sciatica and neuropathy (diabetic neuropathy); test: Physician observation, Patient B: sciatica and diabetic neuropathy; format: in vivo, human; conditions: lotion applied to affected areas
Text: The patient continues to use Relievz™ lotion daily.

Row | SMILES | relief of fibromyalgia symptoms [1] | pain and ambulation [2]
1 | CNCC[C@H](Oc1cccc2ccccc12)c1cccs1 [Cymbalta®, duloxetine HCl] | no relief | –
2 | NCC1(CC(=O)O)CCCCC1 [gabapentin] | – | continued pain
3 | CC(C)C[C@H](CN)CC(=O)O [pregabalin] | no relief | –
4 | CC(C)C[C@H](CN)CC(=O)O [pregabapentin] | – | continued pain
